Paper PMC8464850, “Sulfonium Ligands of the α7 nAChR” (Molecules, 2021)

How the values were obtained:
[1] = target: T1, α3β4 (Homo sapiens, UniProt P30926+P32297); test: Activation of heteromeric nAChR by S1: α3β4; assay type: cell-based
T1 construct: expressed in transfected cells; host or cells: Xenopus laevis oocytes (injected RNA)
Text: (§1) Concatamers were used in order to obtain heteromeric receptors with known subunit composition. The β2-6-α4 concatamer was co-expressed with monomeric α4, β2, or α5 to obtain receptors with the composition α4(3)β2(2), α4(2)β2(3), or α4(2)β2(2)α5, respectively. A concatamer of five linked subunits was used to obtain the β3α4 β2α6β2 receptors. The α3β4 receptors were formed from the co-expression of α3 and β4 subunit monomers at equal ratios. Note that the data were initially measured relative to internal ACh control responses for each oocyte (Methods). Responses were subsequently adjusted for the relative values of the ACh controls and the ACh maximum responses for each of the various subtypes, determined in previous experiments.
(§2) Figure 6 Activation of heteromeric neuronal nAChR by S1. […] Data are the average peak currents (n = 6–8 oocytes ± SEM), measured relative to initial ACh control responses for each oocyte (concentrations listed in Methods). Responses were subsequently adjusted for the relative values of the ACh controls and the ACh maximum responses for each of the various subtypes, determined in previous experiments. […]
(§3) Solutions were applied from 96-well plates via disposable tips. […] The responses were calculated as both peak current amplitudes and net charge, as previously described. […] Multi-cell averages were calculated for comparisons of complex responses. […]

[2] = target: T2, β3α4 β2α6β2 (Homo sapiens, UniProt P17787+P43681+Q15825); test: Activation of heteromeric nAChR by S1: β3α4β2α6β2 concatamer; assay type: cell-based
T2 construct: expressed in transfected cells; host or cells: Xenopus laevis oocytes (injected RNA)
Text: as §1, §2, §3

[3] = target: T3, α4(2)β2(2)β2L15’M receptors (Homo sapiens, UniProt P17787+P43681, L280M); test: Silent agonism of the TQS-sensitive α4β2L15’M mutant receptor; assay type: cell-based
T3 construct: expressed in transfected cells; host or cells: Xenopus laevis oocytes (injected RNA)
Method: We conducted a screen of the other sulfonium compounds on the α4β2L15’M receptors and identified at least two compounds that gave potentiated responses above our limit of detection indicated by the dotted line in Figure 8B.
Figure 8 Silent agonism of an α4β2 mutant receptor that is sensitive to the α7 PAM TQS. (A) The averaged raw data of responses of eight oocytes expressing the β2-6-α4 concatamer and the β2L15’M mutant to 100 µM of the sulfonium agonist S1, applied alone or co-applied with 30 µM racemic TQS. […] (B) Evaluation of the effects of the sulfonium compounds, applied alone at 100 µM or co-applied with 30 µM TQS to α4(2)β2(2)β2L15’M receptors. […]
(§4) Solutions were applied from 96-well plates via disposable tips. […] The responses were calculated as both peak current amplitudes and net charge, as previously described. Data were collected at 50 Hz, filtered at 20 Hz for α7 receptors or filtered at 5 Hz for heteromeric nAChR, and analyzed by Clampfit (Molecular Devices, San Jose, CA, USA) and Excel (Microsoft, Redmond, WA, USA). Data were expressed as means ± SEM from at least four oocytes for each experiment and plotted with Kaleidagraph 4.5.2 (Abelbeck Software, Reading, PA, USA). Multi-cell averages were calculated for comparisons of complex responses. […]

[4] = tested on: neuronal heteromeric receptors; test: Activation of neuronal heteromeric nAChR (panel); assay type: cell-based, human; settings: all heteromeric subtypes tested
Text: as §1, with “experiments. […]” for “experiments.”
as §4

[5] = peak currents relative to ACh maximum

T1 sequence (P32297 32-505): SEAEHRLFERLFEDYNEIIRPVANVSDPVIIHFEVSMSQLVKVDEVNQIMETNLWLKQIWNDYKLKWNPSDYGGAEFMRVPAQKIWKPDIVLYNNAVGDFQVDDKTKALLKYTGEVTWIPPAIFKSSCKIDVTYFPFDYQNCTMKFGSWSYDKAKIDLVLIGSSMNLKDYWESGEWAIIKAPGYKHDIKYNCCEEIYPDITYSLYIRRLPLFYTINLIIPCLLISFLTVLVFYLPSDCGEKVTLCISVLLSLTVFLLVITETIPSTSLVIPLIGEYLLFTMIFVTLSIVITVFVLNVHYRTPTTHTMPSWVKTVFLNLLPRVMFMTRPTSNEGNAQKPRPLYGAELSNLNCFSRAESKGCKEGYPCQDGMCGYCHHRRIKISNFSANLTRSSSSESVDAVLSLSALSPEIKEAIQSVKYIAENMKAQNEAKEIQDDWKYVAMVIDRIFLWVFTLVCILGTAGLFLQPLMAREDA
T1 sequence (P30926 22-498): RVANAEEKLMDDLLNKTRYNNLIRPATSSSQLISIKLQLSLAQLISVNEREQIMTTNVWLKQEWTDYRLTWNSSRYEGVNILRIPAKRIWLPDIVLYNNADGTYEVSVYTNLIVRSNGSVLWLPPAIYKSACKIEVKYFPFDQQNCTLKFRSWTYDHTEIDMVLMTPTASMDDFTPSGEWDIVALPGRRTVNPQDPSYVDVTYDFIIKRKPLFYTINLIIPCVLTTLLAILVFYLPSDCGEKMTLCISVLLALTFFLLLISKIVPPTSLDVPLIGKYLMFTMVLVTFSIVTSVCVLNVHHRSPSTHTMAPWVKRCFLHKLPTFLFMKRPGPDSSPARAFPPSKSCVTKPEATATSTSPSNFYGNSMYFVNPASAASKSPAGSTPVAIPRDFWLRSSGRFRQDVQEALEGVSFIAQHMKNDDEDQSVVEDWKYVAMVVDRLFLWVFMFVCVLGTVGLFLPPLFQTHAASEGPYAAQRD
T3 sequence (P17787 26-502, stated change not applied): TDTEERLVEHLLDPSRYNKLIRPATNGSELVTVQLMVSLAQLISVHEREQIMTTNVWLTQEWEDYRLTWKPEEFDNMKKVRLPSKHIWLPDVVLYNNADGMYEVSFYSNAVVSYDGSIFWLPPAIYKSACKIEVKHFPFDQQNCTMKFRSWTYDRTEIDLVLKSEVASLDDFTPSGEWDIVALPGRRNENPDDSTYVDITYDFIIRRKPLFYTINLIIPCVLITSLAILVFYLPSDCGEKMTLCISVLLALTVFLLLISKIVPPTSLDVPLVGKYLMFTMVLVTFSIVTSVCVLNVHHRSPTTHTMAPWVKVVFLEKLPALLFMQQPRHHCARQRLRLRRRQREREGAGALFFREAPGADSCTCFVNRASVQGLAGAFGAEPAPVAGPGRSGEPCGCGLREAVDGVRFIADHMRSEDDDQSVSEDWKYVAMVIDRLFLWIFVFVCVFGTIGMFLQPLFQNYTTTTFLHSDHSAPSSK
T3 sequence (P43681 27-627): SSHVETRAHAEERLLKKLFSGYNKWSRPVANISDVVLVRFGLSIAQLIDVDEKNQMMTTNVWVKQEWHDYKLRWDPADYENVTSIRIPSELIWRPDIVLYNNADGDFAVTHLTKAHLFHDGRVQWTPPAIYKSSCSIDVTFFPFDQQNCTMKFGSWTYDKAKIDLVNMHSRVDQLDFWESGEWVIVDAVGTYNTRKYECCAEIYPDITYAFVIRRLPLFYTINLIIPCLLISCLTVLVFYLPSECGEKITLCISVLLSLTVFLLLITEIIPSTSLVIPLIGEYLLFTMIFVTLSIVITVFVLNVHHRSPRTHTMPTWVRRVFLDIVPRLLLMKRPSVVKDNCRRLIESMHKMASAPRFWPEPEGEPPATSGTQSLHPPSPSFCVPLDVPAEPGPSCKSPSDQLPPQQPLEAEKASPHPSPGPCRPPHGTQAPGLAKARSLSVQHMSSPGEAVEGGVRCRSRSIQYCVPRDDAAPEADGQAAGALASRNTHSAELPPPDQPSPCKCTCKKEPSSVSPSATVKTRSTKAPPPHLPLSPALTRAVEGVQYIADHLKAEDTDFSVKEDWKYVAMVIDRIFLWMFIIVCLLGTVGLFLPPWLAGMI
T3 sequence (P17787 26-502 L280M): as the sequence (P17787 26-502, stated change not applied) above, with L255M counted along it
T2 sequence (P43681 29-627 limits assumed): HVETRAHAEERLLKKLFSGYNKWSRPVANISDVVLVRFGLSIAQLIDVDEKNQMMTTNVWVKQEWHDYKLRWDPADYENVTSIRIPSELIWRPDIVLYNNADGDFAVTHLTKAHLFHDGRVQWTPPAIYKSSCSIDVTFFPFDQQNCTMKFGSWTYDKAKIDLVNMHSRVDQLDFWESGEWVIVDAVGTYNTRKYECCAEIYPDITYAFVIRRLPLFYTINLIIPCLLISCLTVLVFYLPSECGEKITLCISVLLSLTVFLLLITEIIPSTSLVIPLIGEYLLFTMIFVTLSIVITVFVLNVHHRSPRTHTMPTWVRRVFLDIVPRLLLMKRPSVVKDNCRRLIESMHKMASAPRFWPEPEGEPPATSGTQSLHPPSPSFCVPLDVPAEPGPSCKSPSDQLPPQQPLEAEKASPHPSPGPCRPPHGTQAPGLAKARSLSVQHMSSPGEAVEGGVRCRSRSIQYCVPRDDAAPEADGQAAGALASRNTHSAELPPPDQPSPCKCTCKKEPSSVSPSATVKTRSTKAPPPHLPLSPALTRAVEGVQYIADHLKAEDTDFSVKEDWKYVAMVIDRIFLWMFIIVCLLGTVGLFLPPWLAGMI
T2 sequence (P17787 26-502): as the sequence (P17787 26-502, stated change not applied) above
T2 sequence (Q15825 26-494): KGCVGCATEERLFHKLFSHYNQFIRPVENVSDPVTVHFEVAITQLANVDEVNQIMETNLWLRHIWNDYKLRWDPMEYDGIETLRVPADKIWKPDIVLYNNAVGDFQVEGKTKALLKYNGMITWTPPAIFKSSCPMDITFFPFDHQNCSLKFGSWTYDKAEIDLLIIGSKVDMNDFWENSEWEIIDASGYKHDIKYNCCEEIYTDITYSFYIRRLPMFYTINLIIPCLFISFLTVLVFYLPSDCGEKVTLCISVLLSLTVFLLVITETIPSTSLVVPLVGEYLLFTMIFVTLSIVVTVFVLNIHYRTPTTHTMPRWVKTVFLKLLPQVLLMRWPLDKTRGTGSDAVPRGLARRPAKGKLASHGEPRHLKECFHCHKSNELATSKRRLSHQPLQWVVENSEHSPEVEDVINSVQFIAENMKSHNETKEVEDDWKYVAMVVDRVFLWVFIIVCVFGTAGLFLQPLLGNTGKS

## C[S+](C)C.[I-] [Compound S1, trimethylsulfonium iodide]
[1]; [5]
  IMax (S1 Activation): 1.18 ± 0.01
[1]; peak currents, unit inferred
  EC50: 1420 ± 19.4 µM
[2]; [5]
  IMax (S1 Activation): 0.71 ± 0.35
[2]; peak currents, unit inferred
  EC50: 333 ± 51 µM
[3]; 100 µM applied alone
  activation of α4β2L15’M mutant receptors: activated the α4β2L15’M mutant receptors
[3]; 100 µM compound with 30 µM TQS, limit of detection 20 nA
  response on co-application with TQS: potentiated by TQS
[4]
  activation of neuronal heteromeric receptors: activates all the neuronal heteromeric receptors tested
